# Test results published in patent US8592435B2, “Nitrogen-containing six-membered aromatic ring derivatives and pharmaceutical products containing the same” (Daiichi Sankyo Company, Limited, priority 2007, dated 2013).
# Columns and labels:
# [1] = tested on: myocardial infarction model (LAD occluded); test: Test Example 5: myocardial infarction model in rats; assay type: in vivo, Slc:SD rats; conditions: oral once daily 0.01, 0.1 or 1.0 mg/kg for 28 days, 4 weeks after myocardial infarction
# Experimental: According to the method of Masakatsu Wakeno et al. [Circulation 114: 1923-1932 (2006)], 10-week-old male Slc:SD rats were anesthetized with pentobarbital and cut open in the chest area. The left anterior descending coronary artery (LAD) was completely occluded to establish a myocardial infarction model. Sham group underwent only thoracic surgical procedure.
# The test compound used was Example Compound 65, which was orally administered once daily at a dose of 0.01 mg/kg, 0.1 mg/kg or 1.0 mg/kg for 28 days starting from the day of establishment of myocardial infarction model (after awakening from anesthesia).
# 4 weeks after establishing myocardial infarction, animals were anesthetized with pentobarbital and monitored for their cardiachemodynamics using a mirror catheter. Subsequently, blood samples were collected from the abdominal aorta, wet lung weight was measured, and plasma BNP levels after arterial blood sampling were measured (RIA).
# FIGS. 7, 8, 9 and 10 show the results of LVEDP, LVdP/dt max, lung weight and plasma […] levels, respectively.
# #: P<0.05, ##: P<0.01 between sham and control by Student's t-test
# *: P<0.05, **: P<0.01: vs control by Dunnett's test
# [2] = tested on: spinal cord injury (SCI) model; test: Test Example 7: spinal cord injury (SCI) model in rats; assay type: in vivo, Slc: SD rats; conditions: 1 mg/kg through the tail vein once daily for 10 days, once a week until 5 weeks after surgery
# Text: According to the method of Venkata Ramesh Dasari et al. [J Neurotrauma. 2007 February; 24(2):391-410], 9-week-old female Slc: SD rats were used. Animals were anesthetized with pentobarbital and incised along the dorsal midline. After the spinal column was exposed by dorsal midline incision, the 9th thoracic vertebral arch was removed with bone scissors, paying attention not to damage the dura mater. The upper and lower bones were held in place to position the exposed spinal site just under the impactor device (where impact is applied) and then a 200-kdyn force was applied to the site. Tonic extension of the lower limbs by the spinal cord injury was checked.
# The test compound used was Example Compound 65, which was administered at a dose of 1 mg/kg. Specifically, the compound was administered through the tail vein once daily for 10 days, starting from 90 min after the surgery. The motor function of lower limb was evaluated by BBB score (Basso D M, Beattie M S, Bresnahan J C: J Neurotrauma. 1995; 12:1-21) once a week until 5 weeks after surgery.
# hippocampal neurons = test: Test Example 1: ability to promote axonal outgrowth; assay type: cell-based, Wistar rats; conditions: Hippocampal neuron, 216 h; Compound Conc. = 3 μM; % of control; rat hippocampal neurons, day 9; read-out: Promotion of axonal outgrowth (%)
# How it was run: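 Embryonic day-18 Wistar rat hippocampal neurons were cultured at 37° C, treated with AraC from day 3, and given compound at 3 μM and 0.3 μM on days 3 and 7. On day 9, GAP-43-stained axons were quantified and expressed as % of control; bFGF-based threshold is 120.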
# [3] = tested on: critical limb ischemia model (left femoral artery excised); test: Test Example 4: lower limb ischemia (critical limb ischemia) model in mice; assay type: in vivo, Balb/c mice; conditions: oral once daily 0.1 or 1.0 mg/kg for 10 days from femoral artery excision, vs Vehicle
# Experimental: According to the method of Ichiro Masaki [Circ Res. 90; 966-973 (2002)], the left femoral artery of Balb/c mice was excised to establish a model of critical limb ischemia (n=29 to 30).
# Test compounds used were Example Compounds 65, 92, 114, 130, 135 and 136, each of which was orally administered once daily at a dose of 0.1 mg/kg or 1.0 mg/kg for 10 days starting from the day of femoral artery excision.
# The results are shown in FIGS. 1 to 6 in which FIGS. 1, 2, 3, 4, 5 and 6 show the results of Example Compounds 65, 92, 114, 130, 135 and 136, respectively.
# In the figures, a thick solid line indicates a Vehicle group, a thin dotted line indicates a group administered 0.1 mg/kg/day of each compound, and a thin solid line indicates a group administered 1.0 mg/kg/day of each compound.
# *: P<0.05, **: P<0.01, ***: P<0.001 vs Vehicle by Wilcoxon's test.
structure (smiles),measurement,setting,value
"Cc1nc(OCC(=O)N(C)C2CCN(Cc3ccccc3)CC2)nc(C)c1N [Compound 65, 2-(5-amino-4,6-dimethylpyrimidine-2-yloxy)-N-(1-benzylpiperidine-4-yl)-N-methylacetamide]",end-diastolic pressure (LVEDP),[1],suppressed
same,maximum left ventricular contraction and diastolic velocity (LVdP/dt max),[1],suppressed the decrease
same,wet lung weight,[1],suppressed
same,plasma BNP levels,[1]; RIA,suppressed the increase
same,motor function of lower limb (BBB score),[2],highly effective in ameliorating spinal cord injury
same,activity at 3 µM,hippocampal neurons,134%
same,survival rate of lower limb,[3],increased survival rate
